The values below come from patent US11926619B2, “Certain pladienolide compounds and methods of use” (EISAI R&D MANAGEMENT CO., LTD., priority 2018, dated 2024).

One assay concerns the target T1, SF3b complexes (Homo sapiens, UniProt O75533+Q7RTV0).
T1 construct: endogenous in cells
The assay can be described thus: Scintillation proximity assay (SPA) with [3H]-labelled pladienolide probe. The settings on record: wt SF3B1, read-out: SPA (wt SF3B1 cells) IC50. Type of assay: binding. As to the method: Batch immobilization of anti-SF3B1 antibody (MBL) to anti-mouse PVT SPA scintillation beads (PerkinElmer) was prepared as follows: for every 2.5 mg of nuclear extracts, 5 μg anti-SF3B1 antibody and 1.5 mg of beads were mixed in 150 μl PBS. The antibody-bead mixture was incubated for 30 min at RT and centrifuged at 18,000 g for 5 min. 150 μl PBS was used to resuspend every 1.5 mg antibody-bead mixture. The beads were suspended and added to the prepared nuclear extracts. The slurry was incubated for 2 h at 4° C. with gentle mixing. The beads were then collected by centrifuging at 18,000 g for 5 min, and washed twice with PBS+0.1% Triton X-100. After a final centrifugation step, every 1.5 mg of beads was suspended with 150 μl of PBS. The SF3b complexes were tested for [^3H]-labelled pladienolide probe binding ([^3H]-PB), synthesized as previously described (Kotake et al., 2007). 100 μL binding reactions were prepared with 50 μl bead slurry and by adding varying concentrations of PB or PB—OH, and after 30 min pre-incubation, 2.5 nM [^3H]—PB was added. The mixture was incubated for 30 min, and luminescence signals were read using a MicroBeta2 Plate Counter (PerkinElmer). Prism 6 (Graphpad) was used for non-linear regression curve fitting of the data.

In assay [1] the test system is WiDr cells (colon cancer cells; wildtype SF3B1). The assay can be described thus: Cell viability assay (CellTiter-Glo, 72 hr), WiDr cells. The conditions noted are these: Homo sapiens; WiDr cells (wildtype SF3B1); read-out: WiDr GI50. It is filed as cell-based. A digest of the protocol:
(§1)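 Cells at 2000/well were exposed to 9 compound concentrations (0.1% DMSO) in duplicate or triplicate for 72 hr at 37 °C. ATP was read by CellTiter-Glo against a time-zero plate and DMSO control growth. Percent growth/viability was plotted against concentration to give Emax; negative values indicate lethality.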

In assay [2] the test system is Panc 05.04 cells (pancreatic cancer cells; Q699H and K700E mutations in SF3B1). The assay can be described thus: Cell viability assay (CellTiter-Glo, 72 hr), Panc 05.04 cells. Type of assay: cell-based. The settings on record: Panc 05.04 cells (mutant SF3B1); for Emax: maximum achievable response in tested dose range, negative value = cellular lethality, read-out: Panc 05.04 (mt SF3B1 cells) Emax (%); for GI50: read-out: Panc 05.04 (mt SF3B1 cells), GI50. A digest of the protocol: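 Panc 05.04 cells treated 72 hr at 37 °C with 9 compound concentrations (0.1% DMSO), duplicate or triplicate. ATP read by CellTiter-Glo; growth inhibition/viability calculated against a time-zero plate and DMSO control growth. Emax is the maximal response over the tested range, negative values meaning lethality.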

The subject of assay [3] is WiDr-R cells (colon cancer cells; chemically-induced SF3B1 R1074H mutant). The assay can be described thus: Cell viability assay (CellTiter-Glo, 72 hr), resistant WiDr-R cells (counter-screen). It is filed as cell-based. The conditions noted are these: WiDr-R cells (SF3B1 R1074H mutation, resistant); read-out: WiDr-R GI50. A digest of the protocol:
as §1

As to `C/C(=C\C=C\[C@@H](C)COC(=O)N1CCC[C@H]1CO)[C@H]1OC(=O)CCCCC[C@@H](OC(=O)N2CCN(CC(F)(F)F)CC2)/C=C/[C@@H]1C`, the IC50 at SF3b complexes amounted to 113 nM. The values for the 50% growth inhibitory concentration (GI50) in assay [1], in assay [2] and in assay [3] were 65.5 nM, 54.7 nM and > 1000 nM, respectively. Moreover, the Emax in assay [2] is -85.6%.
On to `C/C(=C\C=C\[C@@H](C)c1ncccn1)[C@H]1OC(=O)C[C@H](O)CC[C@@](C)(O)[C@@H](OC(=O)N2CCN(C3CCCCCC3)CC2)/C=C/[C@@H]1C`, for which the IC50 on SF3b complexes turned out to be 8.1 nM. Besides, the figures for the 50% growth inhibitory concentration (GI50) in assay [1], in assay [2] and in assay [3] were 33.6 nM, 29.5 nM and > 1000 nM, respectively. In addition, the Emax in assay [2] was -92.9%.
Consider `C/C(=C\C=C\[C@@H](C)COC(=O)N1CCCC1)[C@H]1OC(=O)C[C@@H](O)CC[C@](C)(O)[C@@H](OC(=O)N2CCN(C)CC2)/C=C/[C@@H]1C`, for which the IC50 on SF3b complexes stood at 47.8 nM. The GI50 was 15.2 nM in assay [1], 6.55 nM in assay [2] and > 1000 nM in assay [3]. Also, in assay [2], the Emax is -90.2%.
For the molecule `C/C(=C\C=C\[C@@H](C)COC(=O)N1CCCC1)[C@H]1OC(=O)C[C@H](O)CC[C@](C)(O)[C@@H](OC(=O)N2CCN(C)CC2)/C=C/[C@@H]1C`, the IC50 on SF3b complexes is 5.69 nM. Moreover, the 50% growth inhibitory concentration (GI50) in assay [1] is 7.12 nM; in assay [2] it was 3.14 nM; in assay [3], > 1000 nM. The Emax in assay [2] was -83.7%.
For the molecule `C/C(=C\C=C\[C@@H](C)CCC(=O)N1CCCC1)[C@H]1OC(=O)C[C@H](O)CC[C@@](C)(O)[C@@H](OC(=O)N2CCN(C)CC2)/C=C/[C@@H]1C`, at SF3b complexes, the 50% inhibitory concentration (IC50) was 4.36 nM. In addition, the GI50 is 26.4 nM in assay [1], 27.3 nM in assay [2] and > 1000 nM in assay [3]. Further, the Emax in assay [2] is -87.3%.
In the case of `C/C(=C\C=C\[C@@H](C)COC(=O)N1CCCC1(C)C)[C@H]1OC(=O)C[C@H](O)CC[C@@](C)(O)[C@@H](OC(=O)N2CCN(C)CC2)/C=C/[C@@H]1C`, the half-inhibitory concentration (IC50) at SF3b complexes worked out at 3.73 nM. The results for the GI50 in assay [1], in assay [2] and in assay [3] were 9.61 nM, 7.82 nM and > 1000 nM, respectively. In addition, the Emax in assay [2] is -93.7%.
In the case of `C/C(=C\C=C\C(C)c1ncccn1)[C@H]1OC(=O)C[C@H](O)CC[C@@](C)(O)[C@@H](OC(=O)N2CCN(C)CC2)/C=C/[C@@H]1C` (stereo partly drawn), at SF3b complexes, the IC50 is 38.4 nM. Also, the figures for the GI50 in assay [1], in assay [2] and in assay [3] were 60.1 nM, 155 nM and > 1000 nM, respectively. Besides, the Emax in assay [2] was -22.2%.
As to `C/C(=C\C=C\[C@@H](C)c1ccccn1)[C@H]1OC(=O)C[C@H](O)CC[C@@](C)(O)[C@@H](OC(=O)N2CCN(C3CCOCC3)CC2)/C=C/[C@@H]1C`, on SF3b complexes, the IC50 was 8.56 nM. Further, the values for the 50% growth inhibitory concentration (GI50) in assay [1], in assay [2] and in assay [3] were 53.1 nM, 37.2 nM and > 1000 nM, respectively. Moreover, the Emax in assay [2] is -87.7%.
Regarding `C/C(=C\C=C\[C@@H](C)c1ccccn1)[C@H]1OC(=O)CCCCC[C@@H](OC(=O)N(C)C)/C=C/[C@@H]1C`, the 50% inhibitory concentration (IC50) on SF3b complexes is > 1200 nM. The concentration for 50% growth inhibition (GI50) in assay [1] stood at 1060 nM; in assay [2], 5790 nM; in assay [3], 7760 nM. In addition, the Emax in assay [2] came out at 48.2%.
The corresponding values for `C/C(=C\C=C\[C@@H](C)COC(=O)N1CCCC1)[C@H]1OC(=O)CCCC[C@@](C)(O)[C@@H](OC(=O)N2CCN(C)CC2)/C=C/[C@@H]1C` are 1.67 nM, 4.92 nM, 2.38 nM, > 1000 nM and -91.4%.
Regarding `C/C(=C\C=C\C(C)c1cccnc1)[C@H]1OC(=O)C[C@H](O)CC[C@@](C)(O)[C@@H](OC(=O)N2CCN(C3CCCCCC3)CC2)/C=C/[C@@H]1C` (stereo partly drawn), on SF3b complexes, the 50% inhibitory concentration (IC50) was found to be 2.51 nM. For the same molecule, the figures for the concentration for 50% growth inhibition (GI50) in assay [1], in assay [2] and in assay [3] were 19.7 nM, 10.4 nM and > 1000 nM, respectively. The Emax in assay [2] was -95.4%.
In the same order, the values of `CC(=O)O[C@H]1/C=C/[C@H](C)[C@@H](/C(C)=C/C=C/[C@@H](C)c2ccccn2)OC(=O)C[C@H](O)CC[C@@H]1C` are 538 nM, 421 nM, 2890 nM, > 10000 nM and 28.1%.
With `C/C(=C\C=C\[C@H](C)COC(=O)N1CCCC1)[C@H]1OC(=O)C[C@H](O)CC[C@@](C)(O)[C@@H](OC(=O)N2CCN(C3CCCCCC3)CC2)/C=C/[C@@H]1C`, the concentration for half-maximal inhibition (IC50) at SF3b complexes is 11.6 nM. The figures for the GI50 in assay [1], in assay [2] and in assay [3] were 11.8 nM, 11.7 nM and 862 nM, respectively. In addition, the Emax in assay [2] is -93.5%.
With `C/C(=C\C=C\[C@@H](C)CNC(=O)C1CCCC1)[C@H]1OC(=O)C[C@H](O)CC[C@@](C)(O)[C@@H](OC(=O)N2CCN(C3CCCCCC3)CC2)/C=C/[C@@H]1C`, the IC50 at SF3b complexes worked out at 11.2 nM. Further, the results for the concentration for 50% growth inhibition (GI50) in assay [1], in assay [2] and in assay [3] were 73 nM, 53.3 nM and > 1000 nM, respectively. Moreover, the Emax in assay [2] is -88.4%.
In the same order, the values of `C/C(=C\C=C\[C@@H](C)COC(=O)N1CC[C@@H](O)C1)[C@H]1OC(=O)C[C@H](O)CC[C@H](C)[C@@H](OC(=O)N2CCN(C)CC2)/C=C/[C@@H]1C` are 5.43 nM, 4.86 nM, 3.37 nM, > 1000 nM and -83.3%.
Turning to `CC(=O)O[C@H]1/C=C/[C@H](C)[C@@H](/C(C)=C/C=C/[C@@H](C)COC(=O)N2CCC[C@H]2C)OC(=O)C[C@H](O)CC[C@@]1(C)O`, at SF3b complexes, the concentration for half-maximal inhibition (IC50) was found to be 2.72 nM. In addition, the GI50 in assay [1] is 0.983 nM; in assay [2], 2.11 nM; in assay [3], > 1000 nM. Also, the Emax in assay [2] is -79.3%.
Regarding `C/C(=C\C=C\[C@@H](C)c1ccccn1)[C@H]1OC(=O)C[C@H](O)CC[C@@](C)(O)[C@@H](OC(=O)N2C[C@H]3C[C@H]2CN3C)/C=C/[C@@H]1C`, the IC50 at SF3b complexes stood at 12.3 nM. Moreover, the GI50 is 41.5 nM in assay [1], 56.4 nM in assay [2] and > 1000 nM in assay [3]. The Emax in assay [2] was -29.4%.
Turning to `C/C(=C\C=C\[C@H](C)c1nccc(C)n1)[C@H]1OC(=O)C[C@H](O)CC[C@@](C)(O)[C@@H](OC(=O)N2CCN(C3CCCCCC3)CC2)/C=C/[C@@H]1C`, the IC50 on SF3b complexes was determined as 9.7 nM. For the same molecule, the concentration for 50% growth inhibition (GI50) in assay [1] is 125 nM; in assay [2] it was 101 nM; in assay [3] it was > 1000 nM. Besides, the Emax in assay [2] is -76.7%.
With `C/C(=C\C=C\[C@@H](C)c1ccccn1)[C@H]1OC(=O)C[C@H](O)CC[C@H](C)[C@@H](OC(=O)N2CCN(C)CC2)/C=C/[C@@H]1C`, on SF3b complexes, the half-inhibitory concentration (IC50) was 3.78 nM. For the same molecule, the GI50 in assay [1] was 15.3 nM; in assay [2], 8.07 nM; in assay [3] it was > 10000 nM. Besides, the Emax in assay [2] is -94.3%.
Take `CC(=O)O[C@H]1/C=C/[C@H](C)[C@@H](/C(C)=C/C=C/[C@@H](C)c2ccccn2)OC(=O)C[C@H](O)CC[C@@]1(C)O`: the IC50 at SF3b complexes was 45.1 nM. The GI50 was 231 nM in assay [1], 538 nM in assay [2] and > 10000 nM in assay [3]. The Emax in assay [2] is -16.1%.
On to `C/C(=C\C=C\[C@@H](C)c1ccccn1)[C@H]1OC(=O)CCCCC[C@@H](OC(=O)N2CCN(C)CC2)/C=C/[C@@H]1C`, for which the IC50 on SF3b complexes was 7.9 nM. In addition, the GI50 was 67.1 nM in assay [1], 75.1 nM in assay [2] and > 10000 nM in assay [3]. The Emax in assay [2] is -93.5%.
